# Results reported in patent publication US20090069181A1, “Product and Process for Treating Water Bodies, Sediments and Soils” (SOLVAY SA, priority 2006, published 2009).
# Tested on: blue green algae
# Assay: Pond treatment, algae control in a four-foot deep pond (Example 1)
# Assay type: in vivo
# Details: treated every two weeks for approximately 6 years during the warmer season
# From the text: The solid form of this invention containing approximately 70% calcium peroxide was applied to the pond by spreading it over the surface at a rate of 10 lbs per acre foot.
smiles,measurement,value
O=S(=O)([O-])[O-].[Cu+2] [copper sulfate],control of algae,control of algae was still difficult
